Tested on: mouse fetal liver culture-derived (mFLC) MKs
Assay: shear-induced proPLT production and PLT release by MKs in the microfluidic device after drug incubation
Assay type: cell-based
Conditions: for PLT release: under both static and physiological shear conditions; for shear-induced proPLT production: physiological shear
Description: Devices were coated with a 0.22 μm filtered 10% BSA solution (Millipore, Billerica, Mass.) for 30 minutes to prevent direct cell contact with glass. Referring to FIG. 1, primary MKs and media were infused in the first inlet 118 and second inlet 122, respectively, at a rate of 12.5 μL/hour using a two-syringe microfluidic pump (Harvard Apparatus, Holliston, Mass.). When the first outlet 120 was closed, both input solutions were redirected toward the second outlet 124 causing primary MKs to trap.
For shear cultures, MKs were loaded onto ‘naked’ microfluidic devices (only BSA-coated), and the infusion rate was doubled incrementally from 12.5 μL/hr to 200 μL/hr over a 2 hour period. For static cultures, isolated MKs were pipetted into chambers formed by mounting a glass coverslide coated with 3% BSA onto a […] with a 1 cm hole and cultured for 24 hours. Both static and shear cultures were maintained at 37 degrees C. and 5 percent CO2 and examined on a Zeiss Axiovert 200 (Carl Zeiss, Thornwood, N.Y.) equipped with 10× (numerical aperature, 0.30) Plan-Neofluar air objective. Differential interference contrast (DIC) images were obtained using CCD camera (Hamamatsu Photonics, Boston, Mass.) at either 2 second (shear cultures) or 20 minute (static cultures) intervals. Images were analyzed using the Metamorph version 7.7.2.0 image analysis software (Molecular Devices, Sunnyvale, Calif., USA) and ImageJ software version 1.47p. ProPLT extension rates were determined manually for over 200 MKs from at least three independent samples. For PLT spreading experiments, effluent was collected from microfluidic devices after 2 hours and pipetted into uncoated static culture chambers, described above. PLTs were permitted to contact glass by gravity sedimentation and spreading was captured at 5 second intervals over a 5 minute period.
In vivo BM MKs extend proPLTs in the direction of blood flow and release PLTs, proPLTs, large cytoplasmic fragments (prePLTs), and even whole MKs into sinusoidal blood vessels which may be trapping in the pulmonary microvascular bed, or otherwise maturing in the circulation. To determine the effect of physiological shear on PLT production, mouse fetal liver culture-derived (mFLC) MKs were isolated on culture day 4 and characterized by size and ploidy before being infused into the microfluidic device (shown in FIG. 3A).
While shear rates were kept constant, proPLT extension rates varied at different positions along the shaft, predictive of a regulated cytoskeletal driven mechanism of proPLT elongation (shown in FIG. 4C). […]

SMILES | PLT release (1 mM EHNA) | shear-induced proPLT production (MKs incubated with 1 mM EHNA prior to infusion in microfluidic device) | PLT release (5 μM Jas) | shear-induced proPLT production (MKs incubated with 5 μM Jas prior to infusion in microfluidic device)
CCCCCC[C@@H]([C@@H](C)O)n1cnc2c(N)ncnc21 (racemic) [EHNA] | inhibited | inhibit |  | 
C/C1=C\[C@H](C)C[C@H](C)OC(=O)C[C@H](c2ccc(O)cc2)NC(=O)[C@@H](Cc2c(Br)[nH]c3ccccc23)N(C)C(=O)[C@H](C)NC(=O)[C@@H](C)C1 [Jas, Jasplankinolide] |  |  | inhibited | inhibit
